Target: human TNAP (Homo sapiens (Human), UniProt P05186)
Experiment: Inhibitory test of TNAP activity (pNPP substrate, p-nitrophenol production)
Assay type: biochemical
Settings: human TNAP from transfected COS1 culture supernatant, 60 minutes at room temperature
Experimental: COS1 cells (DS Pharma Biomedical Co., Ltd.) were transfected with human TNAP (OriGene Technologies, Inc.) using Lipofectamine LTX & Plus reagent (Invitrogen Corp.). On the next day, the medium was replaced with a fresh medium, and the cells were cultured in an incubator for 3 days. After 3 days, the culture supernatant was collected and concentrated by centrifugation at 5000 G for 30 minutes using Amicon 14, 10^4 cut (Merck Millipore). The concentrated culture supernatant was dialyzed against 5 L of 50 mM Tris/200 mM NaCl/1 mM MgCl2/20 μM ZnCl2 twice and used as an enzyme source (enzyme solution). The substrate pNPP (ProteoChem Inc.) was adjusted to 3.1 mM with Milli-Q water, and a solution of each test compound dissolved in dimethyl sulfoxide (DMSO; Wako Pure Chemical Industries, Ltd.) by 6 serial dilutions at a 5-fold common ratio from 100 μM, or DMSO was added thereto at a final concentration of 1% by volume. The enzyme solution adjusted to 2 μg/mL with an assay buffer (200 mM Tris/2 mM MgCl2/0.04 mM ZnCl2/0.01% Tween 20) was added in the same amount of the substrate solution and incubated at room temperature for 60 minutes. Then, the absorbance (ABS: 405 nm) was measured using a microplate reader (model plus 384, Molecular Devices, LLC), and the concentration of produced p-nitrophenol was calculated.

Chain of human TNAP (P05186 18-524): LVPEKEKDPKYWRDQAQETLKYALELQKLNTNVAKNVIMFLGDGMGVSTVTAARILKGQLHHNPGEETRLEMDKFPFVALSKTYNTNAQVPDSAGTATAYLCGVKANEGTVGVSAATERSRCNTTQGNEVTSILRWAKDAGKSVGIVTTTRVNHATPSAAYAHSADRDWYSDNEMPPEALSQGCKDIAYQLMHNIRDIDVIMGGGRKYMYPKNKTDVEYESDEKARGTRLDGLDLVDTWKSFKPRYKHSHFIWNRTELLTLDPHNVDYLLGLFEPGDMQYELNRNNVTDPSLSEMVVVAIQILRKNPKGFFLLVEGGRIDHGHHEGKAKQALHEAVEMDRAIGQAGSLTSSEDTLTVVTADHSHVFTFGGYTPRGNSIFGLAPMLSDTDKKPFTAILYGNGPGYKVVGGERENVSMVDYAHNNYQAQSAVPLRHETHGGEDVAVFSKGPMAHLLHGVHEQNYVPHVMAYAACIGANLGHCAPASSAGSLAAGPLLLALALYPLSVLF

| SMILES | IC50 |
| --- | --- |
| CCOc1ncc(F)cc1S(=O)(=O)Nc1cnc2c(c1)-c1ccnn1[C@@H](C)CO2 [Example 24, 2-ethoxy-5-fluoro-N-[(5S)-5-methyl-5,6-dihydropyrazolo[1,5-d]pyrido[3,2-f][1,4]oxazepin-10-yl]pyridine-3-sulfonamide] | 2.3 nM |
| COC(=O)N[C@@H]1C[C@@H]2COc3ncc(NS(=O)(=O)c4cc(Cl)ccc4OC)cc3C(=O)N2C1 [Example 50, methyl [(8R,9aR)-3-{[(5-chloro-2-methoxyphenyl)sulfonyl]amino}-5-oxo-8,9,9a,10-tetrahydro-5H, 7H-pyrido[3,2-f]pyrrolo[2,1-c][1,4]oxazepin-8-yl]carbamate] | 0.5 nM |
| COc1ccc(Cl)cc1S(=O)(=O)Nc1cnc2c(c1)CN1C(=O)CN(C)C[C@H]1CO2 [Example 64, 5-chloro-2-methoxy-N-[(10aS)-9-methyl-7-oxo-7,8,9,10,10a, 11-hexahydro-5H-pyrazino[2,1-c]pyrido[3,2-f][1,4]oxazepin-3-yl]benzenesulfonamide] | 1.8 nM |
| O=C1c2cc(NS(=O)(=O)c3cc(F)ccc3OC(F)(F)F)cnc2OC[C@H]2C[C@H](O)CN12 [Example 34, 5-fluoro-N-[(8S,9aR)-8-hydroxy-5-oxo-8,9,9a,10-tetrahydro-5H,7H-pyrido[3,2-f]pyrrolo[2,1-c][1,4]oxazepin-3-yl]-2-(trifluoromethoxy)benzenesulfonamide] | 1.6 nM |
| COc1ccc(Cl)cc1S(=O)(=O)Nc1cnc2c(c1)C(=O)N1C[C@@H](F)C[C@@H]1CO2 [Example 44, 5-chloro-N-[(8S,9aR)-8-fluoro-5-oxo-8,9,9a,10-tetrahydro-5H,7H-pyrido[3,2-f]pyrrolo[2,1-c][1,4]oxazepin-3-yl]-2-methoxybenzenesulfonamide] | 0.8 nM |
| O=C1[C@@H](O)C[C@H]2COc3ncc(NS(=O)(=O)c4cc(Cl)ccc4OC(F)(F)F)cc3CN12 [Example 56, 5-chloro-N-[(8S,9aS)-8-hydroxy-7-oxo-8,9,9a,10-tetrahydro-5H,7H-pyrido[3,2-f]pyrrolo[2,1-c][1,4]oxazepin-3-yl]-2-(trifluoromethoxy)benzenesulfonamide] | 1.4 nM |
| CNC(=O)O[C@H]1C[C@@H]2COc3ncc(NS(=O)(=O)c4cc(Cl)ccc4OC)cc3C(=O)N2C1 [Example 48, (8S,9aR)-3-{[(5-chloro-2-methoxyphenyl)sulfonyl]amino}-5-oxo-8,9,9a,10-tetrahydro-5H, 7H-pyrido[3,2-f]pyrrolo[2,1-c][1,4]oxazepin-8-yl methylcarbamate] | 0.6 nM |
| COc1ccc(Cl)cc1S(=O)(=O)Nc1cnc2c(c1)-c1ccnn1[C@@H](C)CO2 [Example 16, 5-chloro-2-methoxy-N-[(5S)-5-methyl-5,6-dihydropyrazolo[1,5-d]pyrido[3,2-f][1,4]oxazepin-10-yl]benzenesulfonamide] | 3.5 nM |
| COc1ccc(F)cc1S(=O)(=O)Nc1cnc2c(c1)C(=O)N1C[C@H](O)C[C@@H]1CO2 [Example 36, 5-fluoro-N-[(8R,9aR)-8-hydroxy-5-oxo-8,9,9a,10-tetrahydro-5H,7H-pyrido[3,2-f]pyrrolo[2,1-c][1,4]oxazepin-3-yl]-2-methoxybenzenesulfonamide] | 1.5 nM |
| CCOc1ccc(F)cc1S(=O)(=O)Nc1cnc2c(c1)-c1ccnn1[C@@H](C)CO2 [Example 18, 2-ethoxy-5-fluoro-N-[(5S)-5-methyl-5,6-dihydropyrazolo[1,5-d]pyrido[3,2-f][1,4]oxazepin-10-yl]benzenesulfonamide] | 2.8 nM |
| COc1ccc(Cl)cc1S(=O)(=O)Nc1cnc2c(c1)-c1ccnn1CCO2 [Example 7, 5-chloro-N-(5,6-dihydropyrazolo[1,5-d]pyrido[3,2-f][1,4]oxazepin-10-yl)-2-methoxybenzenesulfonamide] | 6.5 nM |
| O=C1c2cc(NS(=O)(=O)c3cc(Cl)ccc3OC(F)(F)F)cnc2OC[C@H]2[C@@H](O)CCN12 [Example 42, 5-chloro-N-[(9S,9aS)-9-hydroxy-5-oxo-8,9,9a,10-tetrahydro-5H,7H-pyrido[3,2-f]pyrrolo[2,1-c][1,4]oxazepin-3-yl]-2-(trifluoromethoxy)benzenesulfonamide] | 0.4 nM |
| O=C1c2cc(NS(=O)(=O)c3cc(Cl)ccc3OC(F)(F)F)cnc2OC[C@H]2C[C@@H](O)CN12 [Example 37, 5-chloro-N-[(8R,9aR)-8-hydroxy-5-oxo-8,9,9a,10-tetrahydro-5H,7H-pyrido[3,2-f]pyrrolo[2,1-c][1,4]oxazepin-3-yl]-2-(trifluoromethoxy)benzenesulfonamide] | 1.4 nM |
| COc1ccc(F)cc1S(=O)(=O)Nc1cnc2c(c1)C(=O)N1C[C@@H](O)C[C@@H]1CO2 [Example 31, 5-fluoro-N-[(8S,9aR)-8-hydroxy-5-oxo-8,9,9a,10-tetrahydro-5H,7H-pyrido[3,2-f]pyrrolo[2,1-c][1,4]oxazepin-3-yl]-2-methoxybenzenesulfonamide] | 1.2 nM |
| COc1ccc(Cl)cc1S(=O)(=O)Nc1cnc2c(c1)-c1nnc(C)n1CCO2 [Example 1, 5-chloro-2-methoxy-N-(3-methyl-5,6-dihydropyrido[3,2-f][1,2,4]triazolo[4,3-d][1,4]oxazepin-10-yl)benzenesulfonamide] | 2.6 nM |

More lines, now with the values ahead:

| IC50 | SMILES |
| --- | --- |
| 6.9 nM | COc1ccc(Cl)cc1S(=O)(=O)Nc1cnc2c(c1)-c1ccnn1[C@H](C)CO2 [Example 17, 5-chloro-2-methoxy-N-[(5R)-5-methyl-5,6-dihydropyrazolo[1,5-d]pyrido[3,2-f][1,4]oxazepin-10-yl]benzenesulfonamide] |
| 29.4 nM | COc1ccc(Cl)cc1S(=O)(=O)Nc1cnc2c(c1)-n1nccc1CCO2 [Example 26, 5-chloro-N-(4,5-dihydropyrazolo[1,5-d]pyrido[2,3-b][1,4]oxazepin-9-yl)-2-methoxybenzenesulfonamide] |
| 12.6 nM | COCCOc1ccc(F)cc1S(=O)(=O)Nc1cnc2c(c1)-c1ccnn1CCO2 [Example 11, N-(5,6-dihydropyrazolo[1,5-d]pyrido[3,2-f][1,4]oxazepin-10-yl)-5-fluoro-2-(2-methoxyethoxy)benzenesulfonamide] |
| 3.3 nM | COc1ccc(Cl)cc1S(=O)(=O)Nc1cnc2c(c1)CN1C(=O)COC[C@H]1CO2 [Example 60, 5-chloro-2-methoxy-N-[(10aS)-7-oxo-7,8,10a,11-tetrahydro-5H,10H-[1,4]oxazino[3,4-c]pyrido[3,2-f][1,4]oxazepin-3-yl]benzenesulfonamide] |
| 0.9 nM | COc1ccc(Cl)cc1S(=O)(=O)Nc1cnc2c(c1)C(=O)N1C[C@@H](O)C[C@@H]1CO2 [Example 30, 5-chloro-N-[(8S,9aR)-8-hydroxy-5-oxo-8,9,9a,10-tetrahydro-5H,7H-pyrido[3,2-f]pyrrolo[2,1-c][1,4]oxazepin-3-yl]-2-methoxybenzenesulfonamide] |
| 0.9 nM | COc1ccc(Cl)cc1S(=O)(=O)Nc1cnc2c(c1)C(=O)N1C[C@H](O)C[C@@H]1CO2 [Example 35, 5-chloro-N-[(8R,9aR)-8-hydroxy-5-oxo-8,9,9a,10-tetrahydro-5H,7H-pyrido[3,2-f]pyrrolo[2,1-c][1,4]oxazepin-3-yl]-2-methoxybenzenesulfonamide] |
| 7.1 nM | COc1ccc(Cl)cc1S(=O)(=O)Nc1cnc2c(c1)C(=O)N1C[C@H](O)C[C@H]1CO2 [Example 29, 5-chloro-N-[(8R,9aS)-8-hydroxy-5-oxo-8,9,9a,10-tetrahydro-5H,7H-pyrido[3,2-f]pyrrolo[2,1-c][1,4]oxazepin-3-yl]-2-methoxybenzenesulfonamide] |

From patent publication US11046710B2, “Sulfonamide compounds” (DAIICHI SANKYO COMPANY, LIMITED, priority 2016, dated 2021)
